Test results as given in patent US4380644A, “2-Oxoimidazolidine derivatives” (Tanabe Siyaku Co., Ltd., priority 1980, dated 1983).

Legend:
[1] = biological target: T1, angiotensin-converting enzyme (ACE) (Rattus norvegicus, UniProt P47820); assay: ACE-inhibitory activity in vivo (pressor response to angiotensin I); details: 1.0 mg/kg orally, anesthetized normotensive rats; for Duration of action: ACE inhibition; for inhibition at 1 mg/kg: rat, read-out: ACE-inhibitory activity (%), percentage inhibition of ACE-activity in vivo
T1 construct: Normotensive rats were anesthetized with urethane; from tissue; host or cells: endogenous enzyme of the whole living animal (normotensive rats, in vivo)
T1 sequence (P47820 36-1313): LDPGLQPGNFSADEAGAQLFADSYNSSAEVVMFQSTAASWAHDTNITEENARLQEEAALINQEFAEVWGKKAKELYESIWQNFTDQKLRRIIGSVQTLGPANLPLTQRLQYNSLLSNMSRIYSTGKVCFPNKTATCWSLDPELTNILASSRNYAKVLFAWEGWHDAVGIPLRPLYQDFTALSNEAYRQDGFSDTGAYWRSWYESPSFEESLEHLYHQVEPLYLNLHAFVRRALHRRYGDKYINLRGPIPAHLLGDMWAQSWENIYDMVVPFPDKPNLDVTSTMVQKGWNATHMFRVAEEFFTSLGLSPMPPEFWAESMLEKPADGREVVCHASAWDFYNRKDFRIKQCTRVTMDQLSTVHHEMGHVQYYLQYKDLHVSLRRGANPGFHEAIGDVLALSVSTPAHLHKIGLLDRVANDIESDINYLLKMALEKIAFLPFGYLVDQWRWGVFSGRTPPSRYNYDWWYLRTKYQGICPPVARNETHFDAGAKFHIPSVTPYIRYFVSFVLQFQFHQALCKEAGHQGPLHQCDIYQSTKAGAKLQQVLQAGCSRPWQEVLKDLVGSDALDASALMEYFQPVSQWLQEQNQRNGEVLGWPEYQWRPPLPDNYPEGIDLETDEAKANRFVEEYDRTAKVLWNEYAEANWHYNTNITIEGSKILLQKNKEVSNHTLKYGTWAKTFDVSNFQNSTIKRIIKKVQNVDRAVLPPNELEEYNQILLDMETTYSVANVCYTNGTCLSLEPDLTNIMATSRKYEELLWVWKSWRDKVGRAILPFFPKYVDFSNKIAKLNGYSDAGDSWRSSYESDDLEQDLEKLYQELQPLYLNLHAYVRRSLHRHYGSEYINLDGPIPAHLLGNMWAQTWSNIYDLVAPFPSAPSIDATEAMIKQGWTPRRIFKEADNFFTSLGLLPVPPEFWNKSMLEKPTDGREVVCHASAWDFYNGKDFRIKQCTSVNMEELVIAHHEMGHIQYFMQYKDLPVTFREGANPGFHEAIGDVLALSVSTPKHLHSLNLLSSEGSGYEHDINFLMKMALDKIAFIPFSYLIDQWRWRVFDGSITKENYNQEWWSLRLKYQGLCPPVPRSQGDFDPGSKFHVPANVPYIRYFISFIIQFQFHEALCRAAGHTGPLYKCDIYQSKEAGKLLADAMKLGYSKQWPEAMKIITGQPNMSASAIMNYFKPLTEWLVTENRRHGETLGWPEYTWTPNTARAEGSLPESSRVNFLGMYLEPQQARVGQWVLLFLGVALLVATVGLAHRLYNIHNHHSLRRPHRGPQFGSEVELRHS
Procedure: ACE-inhibitory activity in vivo:
Normotensive rats were anesthetized with urethane (1.5 g/kg, s.c.), and agiotensin I (75~300 ng/kg) was injected into the femoral vein of the rates. The pressor response to angiotensin I was measured with a pressure transducer connected to the carotid artery. Then, a test compound was administered orally thereto at a dose of 1.0 mg/kg, and angiotensin I (300 ng/kg) was further injected intravenously at intervals. The ACE-inhibitory activity of the test compound was estimated from the pressor responses to angiotensin I which were obtained before and after oral administration of the test compound.

[2] = system: spontaneously hypertensive rats (SHR); assay: Hypotensive activity in SHR; format: in vivo; details: 50 mg/kg orally; for Decrease in blood pressure (-ΔmmHg): SHR fasted overnight, systolic blood pressure, tail plethysmography
Procedure: Hypotensive activity in SHR:
A test compound suspended in an aqueous carboxymethylcellulose solution was administered orally to spontaneously hypertensive rats (SHR) fasted overnight. The systolic blood pressure of the rats was measured by the tail plethysmographic technique (The Journal of Laboratory and Clicical Medicine 78 (1971), page 957). The hypotensive activity of the test compound was estimated from the decreased level of blood pressure.

mice = assay: Toxicity after oral administration to mice; format: in vivo; details: 3 g/kg orally
Procedure: For example, when (4S)-1-benzyl- 3-[(2S)-3-benzoylthio-2-methylpropionyl]-2-oxo-imidazolidine-4-carboxylic acid was administered orally to mice at a dose of 3 g/kg, no mouse died within 7 days after said administration.

Row | SMILES | Duration of action [1] [min] | inhibition at 1 mg/kg ([1]; angiotensin I 300 ng/kg i.v.) [%] | Decrease in blood pressure (-ΔmmHg) [2] [mmHg] | Decrease in blood pressure (-ΔmmHg) ([2]; listed as (4S)-1-benzyl-3-[(2S)-3-benzoylthio-2-methylpropionyl]-2-oxo-imidazolidine-4-car) | Duration of action ([2]; hypotensive activity, SHR, 50 mg/kg) [h] | Duration of action (hours) ([2]; hypotensive activity, SHR, listed as (4S)-1-benzyl-3-[(2S)-3-benzoylthio-2-methylpropionyl]-2-oxo-imidazolidine-4-car, 50 mg/kg) | Mortality within 7 days after administration (mice) | ACE-inhibitory activity (%), percentage inhibition of ACE-activity in vivo ([1]; angiotensin I 300 ng/kg i.v.) | Duration of action ([2]; hypotensive activity, SHR) [h]
1 | C[C@H](CSC(=O)c1ccccc1)C(=O)N1C(=O)N(Cc2ccccc2)C[C@H]1C(=O)O [C6 H5 CH2 C6 H5, (4S)-1-benzyl-3-[(2S)-3-benzoylthio-2-methylpropionyl]-2-oxo-imidazolidine-4-carboxylic acid] | > 120 | 76 | 44 | about 44 mmHg | > 6 | more than 6 hours | no mouse died |  | 
2 | C[C@H](CSC(=O)c1ccccc1)C(=O)N1C(=O)N(C)C[C@H]1C(=O)O [CH3 C6 H5, (4S)-1-methyl-3-[(2S)-3-benzoylthio-2-methylpropionyl]-2-oxo-imidazolidine-4-carboxylic acid] | > 120 | 88 |  |  |  |  |  | about 90% | 
3 | CCN1C[C@@H](C(=O)O)N(C(=O)[C@H](C)CSC(=O)c2ccccc2)C1=O [C2 H5 C6 H5, (4S)-1-ethyl-3-[(2S)-3-benzoylthio-2-methylpropionyl]-2-oxo-imidazolidine-4-carboxylic acid] | > 120 | 84 |  |  |  |  |  |  | 
4 | CC(=O)SC[C@@H](C)C(=O)N1C(=O)N(C)C[C@H]1C(=O)O [CH3 CH3, (4S)-1-methyl-3-[(2S)-3-acetylthio-2-methylpropionyl]-2-oxo-imidazolidine-4-carboxylic acid] | > 120 | 67 | 37 |  |  |  |  |  | > 6
